Experimental findings from patent US20100152136A1 (priority 2006, published 2010) are described below.

In this experiment the test system is newly diagnosed multiple myeloma patients. Nature of the experiment: Total Therapy 2 (TT2) clinical trial, multivariate Cox regression of overall and event-free survival. The format is in vivo, human. How it is done:
Purified plasma cells (PCs) were obtained from newly diagnosed multiple myeloma patients who were treated on NIH-sponsored clinical trials UARK 98-026 (Total Therapy 2, TT2) (n=351) and UARK 03-033 (Total Therapy 3, TT3) (n=214). Both protocols utilized induction regimens, followed by melphalan-based tandem autotransplants, consolidation chemotherapy and maintenance treatment.
The Kaplan-Meier method was to estimate OS. OS was defined as the time from the date of registration until death from any cause; survivors were censored at the time of last contact. Significance analysis of microarray (SAM) was used to determine statistically significant expression changes of genes in high- and low-TP53-expressing MM plasma cells. Univariate and multivariate analyses of prognostic factors were performed with the Cox regression.
The details of TT2 and TT3 protocols and their overall results have been reported previously; however, results related to 177 additional patients treated in a TT3 successor protocol to validate bortezomib pharmaco-genomic data have not been reported. The median follow-up times for TT2 and TT3 are 7.2 and 3.9 years, respectively. Both protocols and their revisions had been approved by the Institutional Review Board, and patients had signed a written informed consent in keeping with institutional and federal policies.
The Kaplan-Meier method was used to estimate overall and event-free survival with group comparisons made using the log-rank test. Overall survival and event-free survival were measured from the date of registration until death from any cause and disease relapse or death from any cause, respectively; survivors were censored at the time of last contact. Univariate and multivariate analyses of prognostic factors were carried out using Cox regression models.

Where [1] appears, read: TT2, randomization to thalidomide, 170/341 patients, multivariate analysis, median follow-up 7.2 years (Table 5).

In the case of `O=C1CCC(N2C(=O)c3ccccc3C2=O)C(=O)N1` (stereo not shown) [Thalidomide], the “effect of randomization on event-free and overall survival” value (TT2, in words) is recorded as “beneficial effect”. Also, the “Event-Free Survival HR (95% CI)” value (TT2, randomization to thalidomide, 166/334 patients, multivariate analysis (Table 2)) was 0.75 (0.60, 0.93). Under setting [1], the “Event-free survival HR” value was 0.61 and the “Overall Survival HR” value is on record as 0.70.
